# Laboratory results published in paper PMC4923153, “Protection of Primary Dopaminergic Midbrain Neurons by GPR139 Agonists Supports Different Mechanisms of MPP^+ and Rotenone Toxicity” (Frontiers in Cellular Neuroscience, 2016).
# Target: T1, human GPR139 receptor (Homo sapiens, UniProt Q6DWJ6)
# T1 construct: expressed in transfected cells; host or cells: CHO-K1
# T1 sequence (Q6DWJ6 1-353): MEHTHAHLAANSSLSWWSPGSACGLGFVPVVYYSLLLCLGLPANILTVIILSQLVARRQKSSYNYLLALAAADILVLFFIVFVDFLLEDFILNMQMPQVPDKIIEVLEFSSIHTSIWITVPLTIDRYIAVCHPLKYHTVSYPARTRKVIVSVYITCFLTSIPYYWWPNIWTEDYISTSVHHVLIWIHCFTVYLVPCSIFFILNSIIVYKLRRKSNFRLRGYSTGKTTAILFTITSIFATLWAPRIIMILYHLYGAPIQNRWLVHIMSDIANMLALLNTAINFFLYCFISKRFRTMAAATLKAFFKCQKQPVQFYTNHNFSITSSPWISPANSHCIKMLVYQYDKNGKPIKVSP
# Test: GPR139 calcium mobilization assay (CHO-K1 cells stably expressing the receptor)
# Format: cell-based
# Details: Ca2+ mobilization, determined as described (Shi et al., 2011); read-out: EC50 (GPR139 agonist)
# Procedure: EC50 and IC50 for all compounds were determined as described (Shi et al., [2011]).
# All compounds were further characterized using GPR139-based Ca^2+ mobilization assays (Figure 5).
# Figure 5 Additional characterization of GPR139 compounds using kinetic fluorescence measurements and concentration-response determination in calcium mobilization assays. (A–D) Examples for the kinetic of relative fluorescence units (RFU) for compound 1 and 4 and related controls, involving a two-step addition protocol. (A) Cellular fluorescence response to addition of buffer (approximately at time 0:00 min) and a second addition of buffer at 3:20 min. (B) Cellular fluorescence response to addition of the Ca^2+ ionophore and reference compound for complete release of Ca^2+ from intracellular stores, ionomycin. (C) Cellular response to addition of 10 μM compound 1 at time 0:00. (D) Cellular fluorescence in response to antagonist compound 4 (at 0:00, 50 μM) and addition of agonist compound 1 at EC85 concentration. […]
# Standard molecular cloning techniques were used to generate Chinese hamster ovary (CHO-K1) cells stably expressing the human GPR139 receptor. […] Calcium flux was measured using a Hamamatsu FDSS7000 imaging-based plate reader (Hamamatsu Photonics) using 480 nm excitation light and emitted fluorescent light passed through a 525 nm emission filter and detected by a CCD camera. […]
structure (smiles),measurement,value
"CN(C)C1CCN(C(=O)CNC(=O)Cc2cccc3ccccc23)C1 (stereo not shown) [compound 2, N-[2-(3-Dimethylamino-pyrrolidin-1-yl)-2-oxo-ethyl]-2-Naphthalen-1-yl-acetamide]",EC50,530 nM
